Measured values taken from patent publication US10828515B2, “Compositions containing phenolic compounds having synergistic antioxidant benefits” (L'OREAL, priority 2016, dated 2020).

Experiment: oxygen radical absorbance capacity assay (ORAC)
Format: biochemical
Conditions: individual antioxidant compounds
Description: Synergism was determined by comparing the antioxidant capacities of combinations of components measured by oxygen radical absorbance capacity assay (ORAC) with expected or additive values of the individual compounds. As reflected in the Examples below, the expected ORAC is the combined (additive) antioxidant capacity of each individual antioxidant compound in the association, measured individually and assuming that each is functioning independently. The expected ORAC value of a certain association can be calculated by using the following equation: ORAC (total)=sum of ORAC (compound n, individually) multiplied by the Percentage (compound n, of use in a cosmetic composition), n=1, 2, 3 . . . .
The ORAC assay measures the oxidative degradation of the fluorescent probe (fluorescein) after being mixed with free radical generators such as azo-initiator compounds (2,2′-Azobis(2-amidinopropane)dihydrochloride, AAPH). Azo-initiators are considered to produce the peroxyl radical by heating, which damages the fluorescent molecule, resulting in the loss of fluorescence. Antioxidants are considered to protect the fluorescent molecule from the oxidative degeneration. By quantifying the decay of fluorescence using a fluorometer, the degree of protection is determined comparing with a standard control antioxidant Trolox. The result is expressed in μMol equivalent of Trolox.

Compound | ORAC [μmolTolox/g]
OC[C@H]1O[C@@H](Oc2cc(O)cc(/C=C/c3ccc(O)cc3)c2)[C@H](O)[C@@H](O)[C@@H]1O [Polydatin] | 20159
O=C(O)[C@H]1O[C@@H](Oc2cc3oc(-c4ccccc4)cc(=O)c3c(O)c2O)[C@H](O)[C@@H](O)[C@@H]1O [baicalin] | 4759
Cc1c(C)c2c(c(C)c1O)CCC(C)(C(=O)O)O2 (stereo not drawn) [Trolox (VitE), Trolox] | 1000
